Patent US20260232684A1, “FLT3 INHIBITORS AND METHODS OF USING THE SAME” (BIOVENTURES, LLC, priority 2023, published 2026)

Experiments:
[1] = test system: normal donor bone marrow mononuclear cells (BM-MNC); test: Colony forming unit assay of normal bone marrow
Protocol: FIG. 2. […] Normal bone marrow mononuclear cells (BM-MNC) were purchased from StemCell Technologies. 30,000 cells were plated in methylcellulose with increasing concentrations of either gilteritinib, 1, or 2. Blast forming unit-erythroid (BFU-E) and colony forming unit-granulocyte (CFU-G) were counted after 14 days incubation. Assay was completed in triplicate with three independent blood donors. Data shown is cumulated from all independent experiments. Error bars show one standard deviation and p values compared to control were calculated using a Student's t-test. NS indicates an insignificant p value, * indicates p value≤0.05, ** indicates p value≤0.01, *** indicates p value≤0.001, **** indicates p value≤0.0001
Bone marrow mononuclear cells (BM-MNC) of healthy donors (n=3) were purchased from StemCell Technologies (Vancouver, Canada). Cells were plated in a 35 mm dish in triplicate with methylcellulose medium at a concentration previously determined to form approximately 100 total colonies, usually 30,000 cells/mL and containing the appropriate amount of drug. Dishes were incubated for 14-15 days and visually assessed for erythrocyte burst-forming units and granulocyte-macrophage colony-forming units.

[2] = test system: Molm-14 F691L cells stably expressing firefly luciferase; test: Circulating tumor model, Molm14 F691L luciferase; format: in vivo; conditions: mice
Protocol: FIG. 7. […] Molm14 F691L stably expressing FLuc9 were engrafted in mice through tail vein injection. Mice were imaged once every three days.
Molm-14 F691L cells stably expressing firefly luciferase were injected into the tail vein of NSG mice and tumor growth was monitored through bioluminescence.

Molm14 D835Y cells = test: Cell viability assay (CellTiter GLO), Molm14 D835Y; format: cell-based, human; conditions: 48 hours
Protocol: (§1) FIG. 1. […] Cells were treated with inhibitor at increasing log doses (0.1 nM-10 μM) for 48 hours. Cell viability was analyzed through CellTiter GLO. […] Cells were exposed to increasing amounts of each drug for 2 hours. GAPDH1 represents loading control for phospho-ERK and ERK blots. GAPDH2 represents loading control for phosphor-STAT5, STAT5, phospho-S6 and S6. Each experiment was completed in triplicate. Representative images are shown.
(§2) FIG. 5. […] Cells were dosed with inhibitor at increasing log doses (0.1 nM-10 μM) for 48 hours. Cell viability was analyzed through CellTiter GLO.
(§3) MV-4-11 and parental Molm-14 cells were a gift from Dr. Scott Kogan (University of California, San Francisco). HL60 and K562 cell lines were obtained from Charles Sawyers. […] Stable Ba/F3 lines were generated by retroviral infection as previously described (5). All cell lines were tested to be mycoplasma free and human cell lines were authenticated through STR profiling completed at the University of California, Berkeley.
(§4) Each triplicate was either dosed with drug or DMSO vehicle control. Drug dosing was completed at log doses ranging from 0.1 nM-10 μM. Cell viability was assessed after 48 hours using CellTiter GLO (Promega). Viability values were normalized to the vehicle control average. Numerical IC50 values were calculated in GraphPad Prism 7.

Molm14 F691L cells = test: Cell viability assay (CellTiter GLO), Molm14 F691L; format: cell-based, human; conditions: 48 hours
Protocol: as §1, §2, §3, §4

Row | Compound | impact on CFU-G counts/growth ([1]; equivalent multiples of Molm14 IC50, 14 days, three healthy donors) | impact on BFU-E counts/growth ([1]; human, 14 days) | maximally tolerated dose [2] [mg/kg] | activity in cell viability assay (IC50, FIG. 1A/5B), in words (Molm14 D835Y cells) | activity in cell viability assay (IC50, FIG. 1A/5B), in words (Molm14 F691L cells)
1 | CCc1nc(C(N)=O)c(Nc2ccc(N3CCC(N4CCN(C)CC4)CC3)c(OC)c2)nc1NC1CCOCC1 [gilteritinib, reference compound] | substantial impairment in BFU-E and CFU-G counts at 50× and 100×IC50 | substantial impairment in BFU-E and CFU-G counts at 50× and 100×IC50 | 33 |  | 
2 | CC(C)(C)c1cc(NC(=O)Nc2ccc(-c3cn4c(n3)sc3cc(OCCN5CCOCC5)ccc34)cc2)no1 [quizartinib, reference compound] |  |  |  | severely diminished activity | severely diminished activity
